# Like-named read-outs stand apart in the source and are kept apart here.
# Legend:
# carrageenan edema = carrageenan edema inhibiting effect of betamethasone valerate ointments; type: in vivo, rat; conditions: Table 5, betamethasone valerate ointment with penetration enhancer
# Protocol: An ointment was prepared from 0.15 part by weight of betamethasone valerate, 9.85 parts by weight of compound (168) and 90 parts by weight of the hydrophilic ointment.
# In accordance with the method of R. Passarella et al. [Argneim. Forsch 30, (I), Nr. 4, 647-651 (1980)], the carrageenan edema inhibiting effect of the above ointment was examined. Specifically, 0.1 ml of a 1% carrageenan suspension in 0.9% NaCl solution was injected into the tip of the right leg of a rat (body weight 150-175 g). The foot volume was measured immediately after administration of carrageenan and 3, 5, and 6 hours after the administration by means of a mercury displacement device. 0.5, 1 and 2 hours after the administration of carrageenan, 100 mg of the ointment was well […] into each of the sites which underwent inflammation.
# Various ointments were prepared from 0.15 part by weight of betamethasone valerate, […] of the various penetration enhancers shown in Table 5, and 85 parts by weight of the hydrophilic ointment, and tested in the same way as in Example 23.
# [1] = system: eye (cornea, iris, conjunctiva); experiment: primary eye irritation (Draize) in rabbits; type: in vivo, white native male rabbits; conditions: average of three rabbits
# Protocol: enhancers of this invention shown in Table 17 was applied dropwise to one eye of white native male rabbits (body weight 2.0 to 3.0 kg; 3 per group) which, it had been ascertained, were free from any trouble at the cornea, iris and conjunctiva. Nothing was applied to the other eye. Thus, irritation of the absorption aid to the mucous membrane of the eyes were examined, and scores were calculated in accordance with the Draize's eye irritation evaluating method [Association of Foods, "Drugs and Cosmetics" (1957)].
# As a control, sodium laurylsulfate, a kind of surface-active agent, was evaluated in the same way, and the results are also shown in Table 17.
# [2] = diffusion of drug through egg shell membrane in diffusion cell; type: in vitro ADME
# Protocol: A diffusion cell was partitioned by an egg shell membrane. […] While maintaining a temperature of 37° C., the two liquid phases were stirred, and after a lapse of a predetermined period of time, the amount of the drug which diffused into the acceptor side from the donor side was measured.
# The diffusion cell used was a glass cell for use in an ordinary diffusion experiment. The egg shell was obtained by removing the contents of an egg from the shell, immersing the shell in 0.7% acetic acid for 30 minutes, subjecting it to ultrasonication for 15 minutes, and carefully peeling the membrane from the shell.
# A control test was carried out in the same way as above except that only the drug was added to the donor side.
# The amount of the drug which diffused to the acceptor side was measured 30 minutes later, and compared with the control.
# The relative amount of the drug diffused from the drug-penetration enhancer system was calculated by taking the amount of the drug diffused from the control donor side as 100. […] Bull., Vol. 20, p.
# [3] = 30 minutes, drug 0.05% with compound (168) 1.0% on donor side, drug alone = 100, 37° C.
compound,measurement,setting,value
"CCCCCCCCCCCCOCC(O)COC(=O)[C@@H]1CCC(=O)N1 (some centres unmarked) [Compound (108), 3-dodecyloxy-2-hydroxy-1-pyroglutamyloxypropane]",Percentage inhibition vs. control,carrageenan edema; 3 hrs,20.1%
same,Percentage inhibition vs. control,carrageenan edema; 5 hrs,36.7%
same,Percentage inhibition vs. control,carrageenan edema; 6 hrs,36.7%
same,"Primary irritation score, Conjunctiva","[1]; 0.8% soln, 1 hour",2.0
same,"Primary irritation score, Cornea","[1]; 0.8% soln, 1 hour",0
same,"Primary irritation score, Iris","[1]; 0.8% soln, 1 hour",0
same,"Primary irritation score, Total","[1]; 0.8% soln, 1 hour",2.0
same,"Primary irritation score, Conjunctiva","[1]; 0.8% soln, 3 hours",2.0
same,"Primary irritation score, Cornea","[1]; 0.8% soln, 3 hours",0
same,"Primary irritation score, Iris","[1]; 0.8% soln, 3 hours",0
same,"Primary irritation score, Total","[1]; 0.8% soln, 3 hours",2.0
same,"Primary irritation score, Conjunctiva","[1]; 0.8% soln, 6 hours",1.3
same,"Primary irritation score, Cornea","[1]; 0.8% soln, 6 hours",0
same,"Primary irritation score, Iris","[1]; 0.8% soln, 6 hours",0
same,"Primary irritation score, Total","[1]; 0.8% soln, 6 hours",1.3
same,"Primary irritation score, Conjunctiva","[1]; 0.8% soln, 24 hours",0
same,"Primary irritation score, Cornea","[1]; 0.8% soln, 24 hours",0
same,"Primary irritation score, Iris","[1]; 0.8% soln, 24 hours",0
same,"Primary irritation score, Total","[1]; 0.8% soln, 24 hours",0
same,"Primary irritation score, Conjunctiva","[1]; 0.8% soln, 48 hours",0
same,"Primary irritation score, Cornea","[1]; 0.8% soln, 48 hours",0
same,"Primary irritation score, Iris","[1]; 0.8% soln, 48 hours",0
same,"Primary irritation score, Total","[1]; 0.8% soln, 48 hours",0
same,"Primary irritation score, Conjunctiva","[1]; 0.8% soln, 72 hours",0
same,"Primary irritation score, Cornea","[1]; 0.8% soln, 72 hours",0
same,"Primary irritation score, Iris","[1]; 0.8% soln, 72 hours",0
same,"Primary irritation score, Total","[1]; 0.8% soln, 72 hours",0
same,"Primary irritation score, Conjunctiva","[1]; 0.8% soln, 96 hours",0
same,"Primary irritation score, Cornea","[1]; 0.8% soln, 96 hours",0
same,"Primary irritation score, Iris","[1]; 0.8% soln, 96 hours",0
same,"Primary irritation score, Total","[1]; 0.8% soln, 96 hours",0
same,"Primary irritation score, Conjunctiva","[1]; 0.8% soln, 168 hours",0
same,"Primary irritation score, Cornea","[1]; 0.8% soln, 168 hours",0
same,"Primary irritation score, Iris","[1]; 0.8% soln, 168 hours",0
same,"Primary irritation score, Total","[1]; 0.8% soln, 168 hours",0
CN1[C@@H]2C[C@@H](OC(=O)[C@H](CO)c3ccccc3)C[C@H]1[C@@H]1O[C@@H]12 [Scopolamine],Relative amount of the drug diffused,[2]; [3],116
Nc1ccc(C(=O)O)cc1 [p-Aminobenzoic acid],Relative amount of the drug diffused,[2],122
iso-Sorbitol nitrate,Relative amount of the drug diffused,[2]; [3],128
COC1=CC(=O)C[C@@H](C)[C@]12Oc1c(Cl)c(OC)cc(OC)c1C2=O [Griseofulvin],Relative amount of the drug diffused,[2],209
Cc1ccc(Cl)c(OCC(O)CNC(C)(C)C)c1 (centres unmarked) [Bupranolol],Relative amount of the drug diffused,[2],141
"CCC=CCCCCCCCCOCC(O)COC(=O)[C@@H]1CCC(=O)N1 (some centres unmarked) [Compound (134), 3-(9-dodecenyloxy)-2-hydroxy-1-pyroglutamyloxypropane]",Percentage inhibition vs. control,carrageenan edema; 3 hrs,16.4%
same,Percentage inhibition vs. control,carrageenan edema; 5 hrs,30.3%
same,Percentage inhibition vs. control,carrageenan edema; 6 hrs,34.2%
same,"Primary irritation score, Conjunctiva","[1]; 2.4% soln, 1 hour",3.3
same,"Primary irritation score, Cornea","[1]; 2.4% soln, 1 hour",0
same,"Primary irritation score, Iris","[1]; 2.4% soln, 1 hour",0
same,"Primary irritation score, Total","[1]; 2.4% soln, 1 hour",3.3
same,"Primary irritation score, Conjunctiva","[1]; 2.4% soln, 3 hours",1.3
same,"Primary irritation score, Cornea","[1]; 2.4% soln, 3 hours",0
same,"Primary irritation score, Iris","[1]; 2.4% soln, 3 hours",0
same,"Primary irritation score, Total","[1]; 2.4% soln, 3 hours",1.3
same,"Primary irritation score, Conjunctiva","[1]; 2.4% soln, 6 hours",1.3
same,"Primary irritation score, Cornea","[1]; 2.4% soln, 6 hours",0
same,"Primary irritation score, Iris","[1]; 2.4% soln, 6 hours",0
same,"Primary irritation score, Total","[1]; 2.4% soln, 6 hours",1.3
same,"Primary irritation score, Conjunctiva","[1]; 2.4% soln, 24 hours",0
same,"Primary irritation score, Cornea","[1]; 2.4% soln, 24 hours",0
same,"Primary irritation score, Iris","[1]; 2.4% soln, 24 hours",0
same,"Primary irritation score, Total","[1]; 2.4% soln, 24 hours",0
same,"Primary irritation score, Conjunctiva","[1]; 2.4% soln, 48 hours",0
same,"Primary irritation score, Cornea","[1]; 2.4% soln, 48 hours",0
same,"Primary irritation score, Iris","[1]; 2.4% soln, 48 hours",0
same,"Primary irritation score, Total","[1]; 2.4% soln, 48 hours",0
same,"Primary irritation score, Conjunctiva","[1]; 2.4% soln, 72 hours",0
same,"Primary irritation score, Cornea","[1]; 2.4% soln, 72 hours",0
same,"Primary irritation score, Iris","[1]; 2.4% soln, 72 hours",0
same,"Primary irritation score, Total","[1]; 2.4% soln, 72 hours",0
same,"Primary irritation score, Conjunctiva","[1]; 2.4% soln, 96 hours",0
same,"Primary irritation score, Cornea","[1]; 2.4% soln, 96 hours",0
same,"Primary irritation score, Iris","[1]; 2.4% soln, 96 hours",0
same,"Primary irritation score, Total","[1]; 2.4% soln, 96 hours",0
same,"Primary irritation score, Conjunctiva","[1]; 2.4% soln, 168 hours",0
same,"Primary irritation score, Cornea","[1]; 2.4% soln, 168 hours",0
same,"Primary irritation score, Iris","[1]; 2.4% soln, 168 hours",0
same,"Primary irritation score, Total","[1]; 2.4% soln, 168 hours",0
"CCCCCCCCCCCC(=O)OCC(O)COC(=O)[C@@H]1CCC(=O)N1 (some centres unmarked) [Compound (172), 3-dodecanoyloxy-2-hydroxy-1-pyroglutamyloxypropane]",Percentage inhibition vs. control,carrageenan edema; 3 hrs,18.1%
same,Percentage inhibition vs. control,carrageenan edema; 5 hrs,37.2%
same,Percentage inhibition vs. control,carrageenan edema; 6 hrs,35.5%
same,"Primary irritation score, Conjunctiva","[1]; 2.4% soln, 1 hour",3.3
same,"Primary irritation score, Cornea","[1]; 2.4% soln, 1 hour",0
same,"Primary irritation score, Iris","[1]; 2.4% soln, 1 hour",0
same,"Primary irritation score, Total","[1]; 2.4% soln, 1 hour",3.3
same,"Primary irritation score, Conjunctiva","[1]; 2.4% soln, 3 hours",2.0
same,"Primary irritation score, Cornea","[1]; 2.4% soln, 3 hours",0
same,"Primary irritation score, Iris","[1]; 2.4% soln, 3 hours",0
same,"Primary irritation score, Total","[1]; 2.4% soln, 3 hours",2.0
same,"Primary irritation score, Conjunctiva","[1]; 2.4% soln, 6 hours",1.3
same,"Primary irritation score, Cornea","[1]; 2.4% soln, 6 hours",0
same,"Primary irritation score, Iris","[1]; 2.4% soln, 6 hours",0
same,"Primary irritation score, Total","[1]; 2.4% soln, 6 hours",1.3
same,"Primary irritation score, Conjunctiva","[1]; 2.4% soln, 24 hours",0
same,"Primary irritation score, Cornea","[1]; 2.4% soln, 24 hours",0
same,"Primary irritation score, Iris","[1]; 2.4% soln, 24 hours",0
same,"Primary irritation score, Total","[1]; 2.4% soln, 24 hours",0
same,"Primary irritation score, Conjunctiva","[1]; 2.4% soln, 48 hours",0
same,"Primary irritation score, Cornea","[1]; 2.4% soln, 48 hours",0
same,"Primary irritation score, Iris","[1]; 2.4% soln, 48 hours",0
same,"Primary irritation score, Total","[1]; 2.4% soln, 48 hours",0
same,"Primary irritation score, Conjunctiva","[1]; 2.4% soln, 72 hours",0
same,"Primary irritation score, Cornea","[1]; 2.4% soln, 72 hours",0
same,"Primary irritation score, Iris","[1]; 2.4% soln, 72 hours",0
same,"Primary irritation score, Total","[1]; 2.4% soln, 72 hours",0
same,"Primary irritation score, Conjunctiva","[1]; 2.4% soln, 96 hours",0
same,"Primary irritation score, Cornea","[1]; 2.4% soln, 96 hours",0
same,"Primary irritation score, Iris","[1]; 2.4% soln, 96 hours",0
same,"Primary irritation score, Total","[1]; 2.4% soln, 96 hours",0
same,"Primary irritation score, Conjunctiva","[1]; 2.4% soln, 168 hours",0
same,"Primary irritation score, Cornea","[1]; 2.4% soln, 168 hours",0
same,"Primary irritation score, Iris","[1]; 2.4% soln, 168 hours",0
same,"Primary irritation score, Total","[1]; 2.4% soln, 168 hours",0

# Reference: patent US4746675A, “External pharmaceutical composition” (Teijin Limited, priority 1983, dated 1988)
